The source of these data is PubChem BioAssay AID330 (DTP/NCI, 2004).

Where “and” joins values, the source holds several entries; their conditions need not be identical. Equal values may be shown once. Inconclusive results and toxic doses are left out.

In this test the test system is P388 leukemia ip, CD2F1 mice, survival T/C. The test can be described thus: NCI In Vivo Anticancer Drug Screen. Data for tumor model P388 Leukemia (intraperitoneal) in CD2F1 (CDF1) mice. The note with it: endpoint: median survival time, higher = longer survival. In short, it runs like this:
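Mice carrying the transplanted tumor received test compound or vehicle. Survival was recorded in each group, and the value is the treated-group measurement divided by that of the vehicle-treated control group.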

Where [1] appears, read: dose: 6.25 mg/kg/injection, schedule: Q01DX009 (ip), vehicle: saline with Tween-80.
Where [2] appears, read: dose: 12.5 mg/kg/injection, schedule: Q01DX009 (ip), vehicle: saline with Tween-80.
Setting [3] is: dose: 25.0 mg/kg/injection, schedule: Q01DX009 (ip), vehicle: saline with Tween-80.
[4] abbreviates: dose: 50.0 mg/kg/injection, schedule: Q01DX009 (ip), vehicle: saline.
The mark [5] stands for this setting: dose: 100.0 mg/kg/injection, schedule: Q01DX009 (ip), vehicle: saline.
The mark [6] stands for this setting: dose: 200.0 mg/kg/injection, schedule: Q01DX009 (ip), vehicle: saline.
Where [7] appears, read: dose: 50.0 mg/kg/injection, schedule: Q01DX005 (ip), vehicle: saline with Tween-80.
[8] abbreviates: dose: 100.0 mg/kg/injection, schedule: Q01DX005 (ip), vehicle: saline with Tween-80.
Setting [9] is: dose: 200.0 mg/kg/injection, schedule: Q01DX005 (ip), vehicle: saline with Tween-80.
Where [10] appears, read: dose: 50.0 mg/kg/injection, schedule: Q01DX009 (ip), vehicle: Klucel (hydroxypropylcellulose) (HPC).
Where [11] appears, read: dose: 100.0 mg/kg/injection, schedule: Q01DX009 (ip), vehicle: Klucel (hydroxypropylcellulose) (HPC).
The mark [12] stands for this setting: dose: 200.0 mg/kg/injection, schedule: Q01DX009 (ip), vehicle: Klucel (hydroxypropylcellulose) (HPC).
Setting [13] is: dose: 50.0 mg/kg/injection, schedule: Q01DX009 (ip), vehicle: saline with Tween-80.
[14] abbreviates: dose: 100.0 mg/kg/injection, schedule: Q01DX009 (ip), vehicle: saline with Tween-80.
The mark [15] stands for this setting: dose: 200.0 mg/kg/injection, schedule: Q01DX009 (ip), vehicle: saline with Tween-80.
[16] abbreviates: dose: 60.0 mg/kg/injection, schedule: Q01DX005 (ip), vehicle: saline with Tween-80.
Setting [17] is: dose: 120.0 mg/kg/injection, schedule: Q01DX005 (ip), vehicle: saline with Tween-80.
[18] abbreviates: dose: 240.0 mg/kg/injection, schedule: Q01DX005 (ip), vehicle: saline with Tween-80.
Where [19] appears, read: dose: 100.0 mg/kg/injection, schedule: Q04DX003 (ip), vehicle: saline with Tween-80.

For the molecule `Cl`, the T/C is 95 % of control under setting [1]; 100 % of control (dose: 0.01 % in 0.5 ml injection vol, schedule: Q01DX009 (ip), vehicle: water); 100 % of control under setting [2]; 101 % of control and 92 % of control (dose: 0.02 % in 0.5 ml injection vol, schedule: Q01DX009 (ip), vehicle: water); 100 % of control under setting [3]; 106 % of control (dose: 25.0 mg/kg/injection, schedule: Q01DX009 (ip), vehicle: saline). In addition, the T/C reads like this: (dose: 0.04 % in 0.5 ml injection vol, schedule: Q01DX009 (ip), vehicle: water) 102 % of control and 108 % of control; under setting [4], 104 % of control; (dose: 50.0 mg/kg/injection, schedule: Q#A X018 (ip), vehicle: saline) 99 % of control; (dose: 0.08 % in 0.5 ml injection vol, schedule: Q01DX009 (ip), vehicle: water) 100 % of control and 88 % of control; under setting [5], 101 % of control; (dose: 100.0 mg/kg/injection, schedule: Q#A X018 (ip), vehicle: saline) 105 % of control. The T/C reads like this: (dose: 0.16 % in 0.5 ml injection vol, schedule: Q01DX009 (ip), vehicle: water) 88 % of control; under setting [6], 110 % of control and 97 % of control; (dose: 200.0 mg/kg/injection, schedule: Q#A X018 (ip), vehicle: saline) 97 % of control; (dose: 0.31 % in 0.5 ml injection vol, schedule: Q01DX009 (ip), vehicle: water) 88 % of control; (dose: 400.0 mg/kg/injection, schedule: Q01DX009 (ip), vehicle: saline) 95 % of control; (dose: 400.0 mg/kg/injection, schedule: Q#A X018 (ip), vehicle: saline) 87 % of control. Moreover, the T/C (dose: 800.0 mg/kg/injection, schedule: Q01DX009 (ip), vehicle: saline) was 103 % of control.
As to `Cc1ccc2no[n+]([O-])c2c1[N+](=O)[O-]`, the T/C was 118 % of control and 119 % of control under setting [7]; 121 % of control under setting [8]; 150 % of control under setting [9].
As to `CCOC(=O)/C(=C/Nc1ccc(O)cc1)NC(=O)c1ccccc1`, the T/C reads like this: under setting [10], 103 % of control and 104 % of control; under setting [11], 94 % of control and 97 % of control; under setting [12], 118 % of control and 87 % of control; (dose: 400.0 mg/kg/injection, schedule: Q01DX009 (ip), vehicle: Klucel (hydroxypropylcellulose) (HPC)) 89 % of control.
Turning to `CCC(C)CN1CCc2c(c3c(c(OC)c2OC)CCC3)C1` (centres undefined), the T/C runs as follows: (dose: 50.0 mg/kg/injection, schedule: Q04DX002 (ip), vehicle: saline) 101 % of control; (dose: 100.0 mg/kg/injection, schedule: Q04DX002 (ip), vehicle: saline) 102 % of control; (dose: 200.0 mg/kg/injection, schedule: Q04DX002 (ip), vehicle: saline) 96 % of control.
Take `CC1(O)Oc2c(cc(C(C)(C)C)cc2C(C)(C)C)C1=O` (centres undefined): the T/C reads like this: under setting [1], 99 % of control; under setting [2], 102 % of control; under setting [3], 105 % of control.
For `Cc1cc(Cl)c2ccc(N(C)C)cc2n1`, the T/C reads like this: under setting [13], 119 % of control; under setting [14], 112 % of control; under setting [15], 110 % of control.
As for `CCCN1C(C)=C(C#N)C2(C(=O)Nc3ccccc32)C(C#N)=C1C`, the T/C is 99 % of control (dose: 50.0 mg/kg/injection, schedule: Q01DX005 (ip), vehicle: Klucel (hydroxypropylcellulose) (HPC)); 102 % of control (dose: 100.0 mg/kg/injection, schedule: Q01DX005 (ip), vehicle: Klucel (hydroxypropylcellulose) (HPC)); 102 % of control (dose: 200.0 mg/kg/injection, schedule: Q01DX005 (ip), vehicle: Klucel (hydroxypropylcellulose) (HPC)).
Take `CCO/C=N/NC(=O)c1n[nH]c2ccccc12`: the T/C is, setting by setting: under setting [7], 106 % of control; under setting [8], 100 % of control; under setting [9], 106 % of control.
Turning to `O=Cc1cc(-c2ccccc2)n(-c2ccccc2)c1-c1ccccc1`, the T/C reads like this: under setting [16], 96 % of control; under setting [17], 98 % of control; under setting [18], 97 % of control.
Take `CCOC1N(c2ccc(Cl)cc2)CN(CCCN(C)C)CC1(C)C` (centres undefined): the T/C under setting [13] was 104 % of control, the T/C under setting [14] was 104 % of control and the T/C under setting [15] was 117 % of control.
Take `S=C(SSC(=S)N(Cc1ccccc1)Cc1ccccc1)N(Cc1ccccc1)Cc1ccccc1`: the T/C reads like this: under setting [16], 96 % of control; under setting [17], 103 % of control; under setting [18], 96 % of control.
Consider `ClC=P(c1ccccc1)(c1ccccc1)c1ccccc1`, for which the T/C reads like this: (dose: 50.0 mg/kg/injection, schedule: Q04DX003 (ip), vehicle: saline with Tween-80) 104 % of control; under setting [19], 109 % of control; (dose: 200.0 mg/kg/injection, schedule: Q04DX003 (ip), vehicle: saline with Tween-80) 104 % of control.
On to `Cc1ccc2[nH]cc(C3CCCN4CCCCC34)c2c1` (centres undefined), for which the T/C is 99 % of control (dose: 12.5 mg/kg/injection, schedule: Q01DX001 (ip), vehicle: saline with Tween-80); 100 % of control (dose: 25.0 mg/kg/injection, schedule: Q01DX001 (ip), vehicle: saline with Tween-80); 98 % of control (dose: 50.0 mg/kg/injection, schedule: Q01DX001 (ip), vehicle: saline with Tween-80); 92 % of control (dose: 90.0 mg/kg/injection, schedule: Q01DX001 (ip), vehicle: saline with Tween-80).
Regarding `Cc1cc(Br)c2c(c1)C(C(F)(F)F)(C(F)(F)F)OC(C)(C)N2`, the T/C by setting is: under setting [10], 94 % of control; under setting [11], 100 % of control; under setting [12], 101 % of control.
With `Cc1cccc(Nc2cc(Cl)nc(SCC(=O)O)n2)c1C`, the T/C is 100 % of control under setting [4], 98 % of control under setting [5] and 100 % of control under setting [6].
Take `CC1=C(O)CC(/C(C)=C\Cl)OC1=O` (centres undefined): the T/C is, setting by setting: (dose: 100.0 mg/kg/injection, schedule: Q04DX002 (ip), vehicle: Klucel (hydroxypropylcellulose) (HPC)) 101 % of control; (dose: 200.0 mg/kg/injection, schedule: Q04DX002 (ip), vehicle: Klucel (hydroxypropylcellulose) (HPC)) 98 % of control; (dose: 400.0 mg/kg/injection, schedule: Q04DX002 (ip), vehicle: Klucel (hydroxypropylcellulose) (HPC)) 104 % of control.
`O=C(O)c1cc([N+](=O)[O-])ccc1Nc1ccccc1`: the T/C reads like this: (dose: 6.25 mg/kg/injection, schedule: Q01DX009 (ip), vehicle: suspension in saline) 108 % of control and 90 % of control; (dose: 12.5 mg/kg/injection, schedule: Q01DX009 (ip), vehicle: suspension in saline) 104 % of control; (dose: 25.0 mg/kg/injection, schedule: Q01DX009 (ip), vehicle: suspension in saline) 100 % of control and 90 % of control; (dose: 50.0 mg/kg/injection, schedule: Q01DX009 (ip), vehicle: suspension in saline) 111 % of control and 91 % of control.
As to `Cc1cc(C)nc(NS(=O)(=O)c2ccc(NC(=O)Nc3ccc([N+](=O)[O-])cc3Cl)cc2)n1`, the T/C was 94 % of control under setting [10] and 86 % of control under setting [11].
Consider `C/C(=C1\C(=O)Oc2c(ccc3ccccc23)C1=O)c1ccc2ccccc2c1O`, for which the T/C by setting is: (dose: 12.5 mg/kg/injection, schedule: Q01DX005 (ip), vehicle: saline with Tween-80) 99 % of control; (dose: 25.0 mg/kg/injection, schedule: Q01DX005 (ip), vehicle: saline with Tween-80) 99 % of control; under setting [7], 86 % of control and 97 % of control.
Turning to `O=C1CS[C@@H]2C(=O)CCCC2C1` (some centres undefined), the T/C by setting is: under setting [7], 98 % of control; under setting [8], 98 % of control; under setting [9], 92 % of control.
Regarding `CCSc1ncc(Br)c(Sc2nc(N)nc3nc[nH]c23)n1`, the T/C reads like this: (dose: 4.0 mg/kg/injection, schedule: Q04DX003 (ip), vehicle: saline with Tween-80) 113 % of control; under setting [1], 122 % of control; (dose: 16.5 mg/kg/injection, schedule: Q04DX003 (ip), vehicle: saline with Tween-80) 150 % of control; under setting [3], 90 % of control; (dose: 25.0 mg/kg/injection, schedule: Q04DX003 (ip), vehicle: saline with Tween-80) 150 % of control and 159 % of control; under setting [19], 122 % of control.
